Target: T1, CynT2 (Escherichia coli, UniProt P61517)
T1 construct: gene can; oligomer not determined (dimer or tetramer stated for bacterial beta-CAs in general)
Test: stopped-flow CO2 hydrase assay, phenol red
Type: biochemical
Conditions: not given

T1 sequence (P61517 whole entry): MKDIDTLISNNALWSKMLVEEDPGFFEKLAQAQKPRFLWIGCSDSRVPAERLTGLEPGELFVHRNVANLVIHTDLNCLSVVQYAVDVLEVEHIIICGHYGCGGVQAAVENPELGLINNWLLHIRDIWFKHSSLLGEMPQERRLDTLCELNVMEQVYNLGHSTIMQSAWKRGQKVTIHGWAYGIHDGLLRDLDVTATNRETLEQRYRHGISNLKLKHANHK

SMILES	Ki [nM]
NCCc1ccc(S(N)(=O)=O)cc1 [compound 6, 6]	3320

Same assay, conditions: read-out: KI *(nM) / CynT2

SMILES	Ki [nM]
NS(=O)(=O)c1ccc(O)cc1 [compound 15, 15]	6440
Nc1nccc(Nc2ccc(S(N)(=O)=O)cc2)n1 [compound 19, 19]	416
NS(=O)(=O)c1cc(Cl)cc(Cl)c1O [compound 10, 10]	8560
Cc1ccc(-c2cc(C(F)(F)F)nn2-c2ccc(S(N)(=O)=O)cc2)cc1 [CLX, Celecoxib]	1890
Nc1ccc(S(=O)(=O)NCc2ccc(S(N)(=O)=O)cc2)cc1 [compound 23, 23]	322
Nc1cc(C(F)(F)F)c(S(N)(=O)=O)cc1S(N)(=O)=O [compound 11, 11]	6250
Cn1nc(S(N)(=O)=O)sc1=N [compound 14, 14]	440
Nc1ccc(S(N)(=O)=O)cc1F [compound 7, 7]	> 10000
CC(=O)N=c1sc(S(N)(=O)=O)nn1C [MZA, Methazolamide]	480
Cc1ccc(S(N)(=O)=O)cc1 [compound 4, 4]	3010
NS(=O)(=O)c1ccc(S(=O)(=O)Nc2cccc3c(Cl)c[nH]c23)cc1 [IND, Indisulam]	2390
NS(=O)(=O)Cc1noc2ccccc12 [ZNS, Zonisamide]	3190
O=C1NS(=O)(=O)c2ccccc21 [SAC, Saccharin]	6690
NS(=O)(=O)c1ccc(N2CCCCS2(=O)=O)cc1 [SLT, Sulthiame]	285
NS(=O)(=O)c1ccc(CO)cc1 [compound 16, 16]	2340
Nc1ccc(S(=O)(=O)NCCc2ccc(S(N)(=O)=O)cc2)cc1 [compound 24, 24]	82
Nc1ccc(S(N)(=O)=O)cc1 [compound 2, 2]	790
Nc1ccc(S(N)(=O)=O)cc1Br [compound 9, 9]	2710
CCN[C@H]1CN(CCCOC)S(=O)(=O)c2sc(S(N)(=O)=O)cc21 [BRZ, Brinzolamide]	2050

SMILES	Ki [nM]
Nc1nnc(S(N)(=O)=O)s1 [compound 13, 13]	4120
NS(=O)(=O)c1cccc(S(N)(=O)=O)c1 [compound 3, 3]	457
Nc1ccc(S(=O)(=O)Nc2ccc(S(N)(=O)=O)cc2)cc1 [compound 22, 22]	93
NS(=O)(=O)c1ccc(C(=O)O)cc1 [compound 18, 18]	205
NS(=O)(=O)c1nnc(NS(=O)(=O)c2ccccc2)s1 [BZA, Benzolamide]	276
NS(=O)(=O)c1cc2c(cc1Cl)NCNS2(=O)=O [HCT, Hydrochlorothiazide]	5010
Nc1ccc(S(N)(=O)=O)cc1Cl [compound 8, 8]	> 10000
CCN1CCCC1CNC(=O)c1cc(S(N)(=O)=O)ccc1OC (centres unmarked) [SLP, Sulpiride]	97
NC(N)=Nc1nc(CSCCC(N)=NS(N)(=O)=O)cs1 [FAM, Famotidine]	2770
Nc1ccc(S(=O)(=O)Nc2nnc(S(N)(=O)=O)s2)cc1 [compound 20, 20]	726
Nc1cc(Cl)c(S(N)(=O)=O)cc1S(N)(=O)=O [compound 12, 12]	4390
NCc1ccc(S(N)(=O)=O)cc1 [compound 5, 5]	2840
Cc1onc(-c2ccccc2)c1-c1ccc(S(N)(=O)=O)cc1 [VLX, Valdecoxib]	2750
Nc1cccc(S(N)(=O)=O)c1 [compound 1, 1]	705
NS(=O)(=O)c1ccc(CCO)cc1 [compound 17, 17]	502
NS(=O)(=O)NCCNc1nonc1C(=NO)Nc1ccc(F)c(Br)c1 [EPA, Epacadostat]	2560
NS(=O)(=O)c1cc(Cl)c(Cl)c(S(N)(=O)=O)c1 [DCP, Dichlorophenamide]	> 10000
CC1(C)O[C@@H]2[C@@H](CO[C@@]3(COS(N)(=O)=O)OC(C)(C)O[C@@H]23)O1 [TPM, Topiramate]	3360

Reference: paper PMC7312386, “The Effect of Substituted Benzene-Sulfonamides and Clinically Licensed Drugs on the Catalytic Activity of CynT2, a Carbonic Anhydrase Crucial for Escherichia coli Life Cycle” (International Journal of Molecular Sciences, 2020)
